In the supplement of paper PMC10307832:

Key:
Experiment in all cases: relative viability (nuclei count vs DMSO), 5 days (fraction); higher = more cells survive
NCI-H2405 = test system: NCI-H2405
Summary of the method: (§1)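 Lung cancer cell lines were seeded in 1536-well plates and dosed by pin tool the next day, with either a single drug or a fixed anchor-drug dose combined with five library-drug doses (not always all listed) spaced in √10 steps. Five days later, one step fixed the cells and stained their nuclei (final 0.05% Triton X-100, 1% formaldehyde, 1 ug/ml Hoechst), and nuclei were counted on 4× images. Relative viability is the nuclei count in treated wells divided by the count in vehicle wells, and each value is the median of duplicate plates.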

LXF-289 = test system: LXF-289
Summary of the method: as §1

LK-2 = test system: LK-2
Summary of the method: as §1

SK-LU-1 = test system: SK-LU-1
Summary of the method: as §1

HCC-827 = test system: HCC-827
Summary of the method: as §1

RERF-LC-KJ = test system: RERF-LC-KJ
Summary of the method: as §1

SW 1573 = test system: SW 1573
Summary of the method: as §1

EMC-BAC-2 = test system: EMC-BAC-2
Summary of the method: as §1

NCI-H2126 = test system: NCI-H2126
Summary of the method: as §1

NCI-H3122 = test system: NCI-H3122
Summary of the method: as §1

In the case of `CC1(C)CCC(c2ccc(Cl)cc2)=C(CN2CCN(c3ccc(C(=O)NS(=O)(=O)c4ccc(N[C@H](CCN5CCOCC5)CSc5ccccc5)c(S(=O)(=O)C(F)(F)F)c4)cc3)CC2)C1` [Navitoclax] + CS(=O)(=O)CCNCc1ccc(-c2ccc3ncnc(Nc4ccc(OCc5cccc(F)c5)c(Cl)c4)c3c2)o1 [Lapatinib] (partner 2 µM), the relative viability (NCI-H2405; first compound 0.01581 µM) is reported as 1.29, the relative viability (NCI-H2405; first compound 0.05 µM) is reported as 1.19 and the relative viability (NCI-H2405; first compound 0.1581 µM) is reported as 1.02. For the same compound, the relative viability (NCI-H2405; first compound 0.5 µM) was 0.927, the relative viability (LXF-289; first compound 0.005 µM) was 0.9 and the relative viability (LXF-289; first compound 0.01581 µM) was 0.91. It also gave a relative viability (LXF-289; first compound 0.05 µM) of 0.864, a relative viability (LXF-289; first compound 0.1581 µM) of 0.901 and a relative viability (LXF-289; first compound 0.5 µM) of 0.902. It also gave a relative viability (LK-2; first compound 0.005 µM) of 0.802, a relative viability (LK-2; first compound 0.01581 µM) of 1.08 and a relative viability (LK-2; first compound 0.05 µM) of 1.04. It also gave a relative viability (LK-2; first compound 0.1581 µM) of 0.886, a relative viability (LK-2; first compound 0.5 µM) of 1.05 and a relative viability (SK-LU-1; first compound 0.005 µM) of 0.849. For the same compound, the relative viability (SK-LU-1; first compound 0.01581 µM) was 1.12, the relative viability (SK-LU-1; first compound 0.05 µM) was 0.886 and the relative viability (SK-LU-1; first compound 0.1581 µM) was 0.896. For the same compound, the relative viability (SK-LU-1; first compound 0.5 µM) was 0.753, the relative viability (HCC-827; first compound 0.005 µM) was 0.199 and the relative viability (HCC-827; first compound 0.01581 µM) was 0.2. The relative viability (HCC-827; first compound 0.05 µM) was 0.194, the relative viability (HCC-827; first compound 0.1581 µM) was 0.21 and the relative viability (HCC-827; first compound 0.5 µM) was 0.196. For the same compound, the relative viability (RERF-LC-KJ; first compound 0.005 µM) was 0.857, the relative viability (RERF-LC-KJ; first compound 0.01581 µM) was 0.809 and the relative viability (RERF-LC-KJ; first compound 0.05 µM) was 0.75. It also gave a relative viability (RERF-LC-KJ; first compound 0.1581 µM) of 0.852, a relative viability (RERF-LC-KJ; first compound 0.5 µM) of 0.884 and a relative viability (SW 1573; first compound 0.005 µM) of 1.22. For the same compound, the relative viability (SW 1573; first compound 0.01581 µM) was 1.08, the relative viability (SW 1573; first compound 0.05 µM) was 1.01 and the relative viability (SW 1573; first compound 0.1581 µM) was 1.04. It also gave a relative viability (SW 1573; first compound 0.5 µM) of 1.09, a relative viability (EMC-BAC-2; first compound 0.005 µM) of 0.895 and a relative viability (EMC-BAC-2; first compound 0.01581 µM) of 0.893. The relative viability (EMC-BAC-2; first compound 0.05 µM) was 0.884, the relative viability (EMC-BAC-2; first compound 0.1581 µM) was 0.963 and the relative viability (EMC-BAC-2; first compound 0.5 µM) was 0.943. It also gave a relative viability (NCI-H2126; first compound 0.005 µM) of 0.784, a relative viability (NCI-H2126; first compound 0.01581 µM) of 0.757 and a relative viability (NCI-H2126; first compound 0.05 µM) of 0.739. The relative viability (NCI-H2126; first compound 0.1581 µM) was 0.729, the relative viability (NCI-H2126; first compound 0.5 µM) was 0.702 and the relative viability (NCI-H3122; first compound 0.005 µM) was 0.998. For the same compound, the relative viability (NCI-H3122; first compound 0.01581 µM) was 0.991, the relative viability (NCI-H3122; first compound 0.05 µM) was 1.03 and the relative viability (NCI-H3122; first compound 0.1581 µM) was 0.892. It also gave a relative viability (NCI-H3122; first compound 0.5 µM) of 1.02.
